In brackets after ≈: the same amount, converted by molar mass. Like-named read-outs stand apart in the source and are kept apart here.
Tests used:
Escherichia coli NIHTC-2 = assay: MIC, agar dilution method, pH 7.2; assay type: cell-based
Method: (§1) Measurement was carried out according to the agar dilution method, using a medium of pH 8.0, or the Japanese Antibiotic Medicament Standard, using a medium of pH 7.2 Units are in mcg/ml.

[1] = test system: Eschericihia coli GN2411-5; assay: MIC, agar dilution method, pH 7.2; assay type: cell-based; conditions: Escherichia coli, GN2411, pH 7.2, read-out: Minimum inhibition concentration (MIC)
Method: as §1

[2] = test system: Klebsiella pneumoniae KY4274; assay: MIC, agar dilution method, pH 7.2; assay type: cell-based
Method: as §1

Proteus vulgaris JJ = assay: MIC, agar dilution method, pH 7.2; assay type: cell-based
Method: as §1

[3] = test system: Pseudomonas aeruginosa BMH# 1; assay: MIC, agar dilution method, pH 7.2; assay type: cell-based; conditions: pH 7.2; Pseudomonas aeruginosa BMH# 1; read-out: Minimum inhibition concentration (MIC)
Method: as §1

[4] = test system: Pseudomonas aeruginosa UCLA 4184; assay: MIC, agar dilution method, pH 7.2; assay type: cell-based; conditions: UCLA4184; pH 7.2; Pseudomonas aeruginosa UCLA 4184; read-out: Minimum inhibition concentration (MIC)
Method: as §1

[5] = test system: Salmonella enteritidis G-14; assay: MIC, agar dilution method, pH 7.2; assay type: cell-based; conditions: Salmonella enterica
Method: as §1

Shigella sonnei ATCC9290 = assay: MIC, agar dilution method, pH 7.2; assay type: cell-based; conditions: read-out: Minimum inhibition concentration (MIC)
Method: as §1

[6] = test system: Staphylococcus aureus 209-P; assay: MIC, agar dilution method, pH 7.2; assay type: cell-based; conditions: pH 7.2; Staphylococcus aureus 209-P; read-out: Minimum inhibition concentration (MIC)
Method: as §1

[7] = test system: Staphylococcus aureus Smith (A); assay: MIC, agar dilution method, pH 7.2; assay type: cell-based; conditions: pH 7.2; Staphylococcus aureus Smith (A); read-out: Minimum inhibition concentration (MIC)
Method: as §1

[8] = test system: Staphylococcus a ureus 226; assay: MIC, agar dilution method, pH 7.2; assay type: cell-based, Staphylococcus aureus; conditions: pH 7.2; Staphylococcus aureus 226; read-out: Minimum inhibition concentration (MIC)
Method: as §1

Eschericihia coli 3100 = assay: MIC, agar dilution method, pH 7.2; assay type: cell-based, Escherichia coli; conditions: Escherichia coli; pH 7.2; E. coli 3100; read-out: Minimum inhibition concentration (MIC)
Method: as §1

[9] = test system: Escherichia coli 57R/W677; assay: MIC, agar dilution method, pH 7.2; assay type: cell-based; conditions: 57R/W677, pH 7.2, read-out: Minimum inhibition concentration (MIC)
Method: as §1
(§2) **1: gentamicin, producing adenylsynthetase.

Escherichia coli 76-2 = assay: MIC, agar dilution method, pH 7.2; assay type: cell-based
Method: as §1, §2

[10] = test system: Escherichia coli R12 Z-338; assay: MIC, agar dilution method, pH 7.2; assay type: cell-based
Method: as §1, §2

[11] = test system: Klebsiella pneumoniae 3020 Y-60; assay: MIC, agar dilution method, pH 7.2; assay type: cell-based; conditions: 3020Y60; pH 7.2; Klebsiella pneumoniae 3020 Y-60; 1**: gentamicin, producing adenylsynthetase; read-out: Minimum inhibition concentration (MIC)
Method: as §1, §2

[12] = test system: Escherichia coli R18 KY8321; assay: MIC, agar dilution method, pH 7.2; assay type: cell-based; conditions: R18KY8321, E. coli R18 KY8321, 2**: gentamicin, producing adenylsynthetase and neomycin phosphotransferase type II, read-out: Minimum inhibition concentration (MIC)
Method: as §1
2: gentamicin, producing adenylsynthetase and neomycin phosphotransferase

[13] = test system: Escherichia coli R17 Z343; assay: MIC, agar dilution method, pH 7.2; assay type: cell-based
Method: as §1
(§3) 3: kanamycin, producing acetyltransferase.

[14] = test system: Pseudomonas aeruginosa R9 KY8516; assay: MIC, agar dilution method, pH 7.2; assay type: cell-based; conditions: R9KY8516, pH 7.2, P. aeruginosa R9 KY8516, 3**: kanamycin, producing acetyltransferase, read-out: Minimum inhibition concentration (MIC)
Method: as §1, §3

Serratia marcescens 1065 = assay: MIC, agar dilution method, pH 7.2; assay type: cell-based; conditions: Serratia marcescens, 1065, pH 7.2, read-out: Minimum inhibition concentration (MIC)
Method: as §1, §3

[15] = test system: Escherichia coli R19 KY8348; assay: MIC, agar dilution method, pH 7.2; assay type: cell-based; conditions: R19KY8348, pH 7.2, E. coli R19 KY8348, 4**: gentamicin, producing acetyltransferase type I, read-out: Minimum inhibition concentration (MIC)
Method: as §1
(§4) 4: gentamicin, producing acetyltransferase type I.

[16] = test system: Pseudomonas aeruginosa R4 KY8511; assay: MIC, agar dilution method, pH 7.2; assay type: cell-based; conditions: R4KY8511, pH 7.2, P. aeruginosa R4 KY8511, 4**: gentamicin, producing acetyltransferase type I, read-out: Minimum inhibition concentration (MIC)
Method: as §1, §4

[17] = test system: Escherichia coli R20 KY8349; assay: MIC, agar dilution method, pH 7.2; assay type: cell-based
Method: as §1
5: neomycin, producing phosphotransferase type I.

[18] = test system: Pseudomonas aeruginosa R5 KY8512; assay: MIC, agar dilution method, pH 7.2; assay type: cell-based; conditions: R5KY8512, pH 7.2, P. aeruginosa R5 KY8512, 6**: neomycin, producing phosphotransferase type I and type II, read-out: Minimum inhibition concentration (MIC)
Method: as §1
6: neomycin, producing phosphotransferase type I and type II.

Providencia sp 164 = assay: MIC, agar dilution method, pH 7.2; assay type: cell-based; conditions: pH 7.2; Providencia sp 164; 7**: gentamicin, producing acetyltransferase type II; read-out: Minimum inhibition concentration (MIC)
Method: as §1
7: gentamicin, producing acetyltransferase type II.

[19] = test system: Staphylococcus aureus KY4279 ATCC6538P; assay: MIC, agar dilution method, pH 8.0; assay type: cell-based; conditions: pH 8.0, Staphylococcus aureus KY4279, read-out: Minimum inhibition concentration (MIC), SA
Method: as §1
S.A.: Staphylococcus aureus KY4279 ATCC6538P

Bacillus subtilis KY4273 = assay: MIC, agar dilution method, pH 8.0; assay type: cell-based; conditions: pH 8.0; Bacillus subtilis KY4273; read-out: Minimum inhibition concentration (MIC), BS
Method: as §1
B.S.: Bacillus subtilis KY4273

[20] = test system: Eschericia coli KY4271 ATCC26; assay: MIC, agar dilution method, pH 8.0; assay type: cell-based; conditions: Escherichia coli, ATCC26; pH 8.0; E. coli KY4271; read-out: Minimum inhibition concentration (MIC), EC
Method: as §1
E.C.: Eschericia coli KY4271 ATCC26

[21] = test system: Proteus vulgaris KY4277 ATCC6897; assay: MIC, agar dilution method, pH 8.0; assay type: cell-based; conditions: ATCC6897; pH 8.0; Proteus vulgaris KY4277; read-out: Minimum inhibition concentration (MIC), PV
Method: as §1

[22] = test system: Shigella sonnei KY4281 ATCC9290; assay: MIC, agar dilution method, pH 8.0; assay type: cell-based; conditions: ATCC9290; pH 8.0; Shigella sonnei KY4281; read-out: Minimum inhibition concentration (MIC), SS
Method: as §1

[23] = test system: Salmonella typhosa KY4278 ATCC9992; assay: MIC, agar dilution method, pH 8.0; assay type: cell-based; conditions: Salmonella enterica, pH 8, read-out: Minimum inhibition concentration (MIC), ST
Method: as §1
S.T.: Salmonella typhosa KY4278 ATCC9992

[24] = test system: Klebsiella pneumoniae KY4275 ATCC10031; assay: MIC, agar dilution method, pH 8.0; assay type: cell-based; conditions: ATCC10031; pH 8.0; Klebsiella pneumoniae KY4275; read-out: Minimum inhibition concentration (MIC), KP
Method: as §1
K.P.: Klebsiella pneumoniae KY4275 ATCC10031.

Row | Compound | MIC [1] | MIC [3] | MIC [4] | MIC (Shigella sonnei ATCC9290) | MIC [6] | MIC [7] | MIC [8] | MIC (Eschericihia coli 3100) | MIC [9] | MIC [11] | MIC [12] | MIC [14] | MIC (Serratia marcescens 1065) | MIC [15] | MIC [16] | MIC [18] | MIC (Providencia sp 164) | MIC [19] | MIC (Bacillus subtilis KY4273) | MIC [20] | further results
1 | CO[C@H]1[C@@H](O)[C@H](N)[C@@H](O[C@H]2O[C@H]([C@H](C)N)CC[C@H]2N)[C@H](O)[C@@H]1N(C)CC(O)CCN (stereo partly drawn) [Compound 29, 4-N-[(R,S)-4-amino-2-hydroxybutyl]fortimicin B] | 6.25 µg/mL (≈ 14.3 µM) | 12.5 µg/mL (≈ 28.7 µM) | 25 µg/mL (≈ 57.4 µM) | 6.25 µg/mL (≈ 14.3 µM) | 0.4 µg/mL (≈ 0.918 µM) | 0.4 µg/mL (≈ 0.918 µM) | 0.78 µg/mL (≈ 1.79 µM) | 12.5 µg/mL (≈ 28.7 µM) | 12.5 µg/mL (≈ 28.7 µM) | 25 µg/mL (≈ 57.4 µM) | 12.5 µg/mL (≈ 28.7 µM) | 50 µg/mL (≈ 115 µM) | 6.25 µg/mL (≈ 14.3 µM) | > 100 µg/mL | > 100 µg/mL | 12.5 µg/mL (≈ 28.7 µM) | 25 µg/mL (≈ 57.4 µM) | 0.08 µg/mL (≈ 0.184 µM) | 0.04 µg/mL (≈ 0.0918 µM) | 0.16 µg/mL (≈ 0.367 µM) | MIC (Escherichia coli NIHTC-2; Escherichia coli, NIHTC2, pH 7.2, read-out: Minimum inhibition concentration (MIC)): 3.12 µg/mL (≈ 7.16 µM); MIC ([2]; Klebsiella pneumoniae, KY4274, pH 7.2, read-out: Minimum inhibition concentration (MIC)): 6.25 µg/mL (≈ 14.3 µM); MIC (Proteus vulgaris JJ; Proteus vulgaris, pH 7.2, read-out: Minimum inhibition concentration (MIC)): 3.12 µg/mL (≈ 7.16 µM); MIC ([5]; ENTERITIDIS, pH 7.2, read-out: Minimum inhibition concentration (MIC)): 6.25 µg/mL (≈ 14.3 µM); MIC (Escherichia coli 76-2; Escherichia coli, 762, pH 7.2, read-out: Minimum inhibition concentration (MIC)): 3.12 µg/mL (≈ 7.16 µM); MIC ([10]; R12Z338, pH 7.2, E. coli R12 Z-338, 1**: gentamicin, producing adenylsynthetase, read-out: Minimum inhibition concentration (MIC)): 12.5 µg/mL (≈ 28.7 µM); MIC ([13]; R17Z343, pH 7.2, read-out: Minimum inhibition concentration (MIC)): 3.12 µg/mL (≈ 7.16 µM); MIC ([17]; R20KY8349, pH 7.2, E. coli R20 KY8349, 5**: neomycin, producing phosphotransferase type I, read-out: Minimum inhibition concentration (MIC)): 3.12 µg/mL (≈ 7.16 µM); MIC [21]: 0.32 µg/mL (≈ 0.735 µM); MIC [22]: 0.63 µg/mL (≈ 1.45 µM); MIC [23]: 0.16 µg/mL (≈ 0.367 µM); MIC [24]: 0.63 µg/mL (≈ 1.45 µM)
2 | CNCC[C@H](O)CN(C)[C@H]1[C@@H](O)[C@H](O[C@H]2O[C@H]([C@H](C)N)CC[C@H]2N)[C@@H](N)[C@H](O)[C@@H]1OC [Compound 28, 4-N-[(S)-4-methylamino-2-hydroxybutyl]fortimicin B] | 6.25 µg/mL (≈ 13.9 µM) | 12.5 µg/mL (≈ 27.8 µM) | 50 µg/mL (≈ 111 µM) | 6.25 µg/mL (≈ 13.9 µM) | 0.78 µg/mL (≈ 1.73 µM) | 0.4 µg/mL (≈ 0.89 µM) | 0.4 µg/mL (≈ 0.89 µM) | 12.5 µg/mL (≈ 27.8 µM) | 12.5 µg/mL (≈ 27.8 µM) | 12.5 µg/mL (≈ 27.8 µM) | 12.5 µg/mL (≈ 27.8 µM) | 50 µg/mL (≈ 111 µM) | 6.25 µg/mL (≈ 13.9 µM) | > 100 µg/mL | > 100 µg/mL | 12.5 µg/mL (≈ 27.8 µM) | 25 µg/mL (≈ 55.6 µM) | 0.04 µg/mL (≈ 0.089 µM) | 0.04 µg/mL (≈ 0.089 µM) | 0.08 µg/mL (≈ 0.178 µM) | MIC (Escherichia coli NIHTC-2; NIHTC2, pH 7.2, Escherichia coli NIHTC-2, read-out: Minimum inhibition concentration (MIC)): 1.56 µg/mL (≈ 3.47 µM); MIC ([2]; pH 7.2, Klebsiella pneumoniae KY4274, read-out: Minimum inhibition concentration (MIC)): 3.12 µg/mL (≈ 6.94 µM); MIC (Proteus vulgaris JJ; pH 7.2, Proteus vulgaris JJ, read-out: Minimum inhibition concentration (MIC)): 3.12 µg/mL (≈ 6.94 µM); MIC ([5]; pH 7.2, Salmonella enteritidis G-14, read-out: Minimum inhibition concentration (MIC)): 3.12 µg/mL (≈ 6.94 µM); MIC (Escherichia coli 76-2; Escherichia coli, 762, pH 7.2, E. coli 76-2, 1**: gentamicin, producing adenylsynthetase, read-out: Minimum inhibition concentration (MIC)): 3.12 µg/mL (≈ 6.94 µM); MIC ([10]; R12Z338, pH 7.2, read-out: Minimum inhibition concentration (MIC)): 6.25 µg/mL (≈ 13.9 µM); MIC ([13]; R17Z343, pH 7.2, E. coli R17 Z343, 3**: kanamycin, producing acetyltransferase, read-out: Minimum inhibition concentration (MIC)): 3.12 µg/mL (≈ 6.94 µM); MIC ([17]; R20KY8349, pH 7.2, read-out: Minimum inhibition concentration (MIC)): 1.25 µg/mL (≈ 2.78 µM); MIC [21]: 0.32 µg/mL (≈ 0.712 µM); MIC [22]: 0.63 µg/mL (≈ 1.4 µM); MIC [23]: 0.08 µg/mL (≈ 0.178 µM); MIC [24]: 0.32 µg/mL (≈ 0.712 µM)

— patent US4220755A, “Fortimicin B derivatives and process for production thereof” (Abbott Laboratories, priority 1976, dated 1980)
